Results: PMC7429951 (Journal of Medicinal Chemistry, 2020)

Experiments:
[1] = molecular target: MMP-3 (Homo sapiens, UniProt P08254); experiment: MMP-3 off-target inhibition; assay type: biochemical; settings: read-out: MMP-3 % inhibition @ 100 μM; 100 μM compound
Excerpt: (§1) Previously, we described N-aryl mercaptoacetamides with high selectivity for the bacterial over a broad range of human MMPs.[29],[30] MMPs are calcium-dependent zinc metalloproteases that play a pivotal role in numerous biochemical processes in humans.[39],[40] Based on the depth of their S1′ binding pocket, MMPs can be divided into three classes: deep (e.g., MMP-3 and -14), intermediate (e.g., MMP-2 and -8), and shallow (e.g., MMP-1 and -7). With the aim to explore the interactions of our inhibitors with all three pocket types, which could help us to assess potential effects on other not-tested representatives, we chose a panel of six MMPs, comprising two members of each class. In addition, HDAC-3, HDAC-8, and TACE (ADAM-17)—enzymes involved in gene expression and the processing of TNF-α,[41],[42] respectively—were selected as important additional human off-targets.

[2] = molecular target: T1, MMP-7 (Homo sapiens, UniProt P09237); experiment: MMP-7 off-target inhibition; assay type: biochemical; settings: read-out: MMP-7 % inhibition @ 100 μM; 100 μM compound
T1 sequence (P09237 95-267): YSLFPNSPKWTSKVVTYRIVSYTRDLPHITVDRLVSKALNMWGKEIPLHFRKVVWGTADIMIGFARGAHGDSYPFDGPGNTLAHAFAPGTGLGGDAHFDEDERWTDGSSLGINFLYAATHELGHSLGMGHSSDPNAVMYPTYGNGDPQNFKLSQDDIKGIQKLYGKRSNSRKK
Excerpt: as §1

[3] = in vitro; settings: human, A549 cells (lung carcinoma)
[4] = molecular target: T2, HDAC-3 (Homo sapiens, UniProt O15379); experiment: HDAC-3 inhibitor screening kit; assay type: biochemical
T2 construct: purchased Sigma-Aldrich (Saint Louis, MO)
T2 sequence (O15379 whole entry): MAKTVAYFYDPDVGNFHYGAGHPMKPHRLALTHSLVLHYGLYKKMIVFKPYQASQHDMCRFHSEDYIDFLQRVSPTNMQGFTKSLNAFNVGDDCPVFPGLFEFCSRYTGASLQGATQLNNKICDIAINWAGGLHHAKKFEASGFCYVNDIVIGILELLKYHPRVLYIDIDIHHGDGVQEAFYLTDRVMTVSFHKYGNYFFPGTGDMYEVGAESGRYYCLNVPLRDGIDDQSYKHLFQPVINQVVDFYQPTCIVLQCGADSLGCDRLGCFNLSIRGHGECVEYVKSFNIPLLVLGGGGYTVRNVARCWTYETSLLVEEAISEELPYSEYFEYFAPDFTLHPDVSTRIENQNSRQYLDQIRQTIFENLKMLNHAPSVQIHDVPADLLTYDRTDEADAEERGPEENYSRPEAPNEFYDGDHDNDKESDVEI
T2 sequence (Q9Y618 395-489 partner limits assumed): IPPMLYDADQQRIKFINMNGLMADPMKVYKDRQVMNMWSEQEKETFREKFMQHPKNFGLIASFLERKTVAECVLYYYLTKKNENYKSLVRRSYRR
Excerpt: as §1

[5] = molecular target: LasB (Pseudomonas aeruginosa, UniProt Q02RJ6); settings: vs 4-OMe analogue
Sequence of LasB (Q02RJ6 198-498): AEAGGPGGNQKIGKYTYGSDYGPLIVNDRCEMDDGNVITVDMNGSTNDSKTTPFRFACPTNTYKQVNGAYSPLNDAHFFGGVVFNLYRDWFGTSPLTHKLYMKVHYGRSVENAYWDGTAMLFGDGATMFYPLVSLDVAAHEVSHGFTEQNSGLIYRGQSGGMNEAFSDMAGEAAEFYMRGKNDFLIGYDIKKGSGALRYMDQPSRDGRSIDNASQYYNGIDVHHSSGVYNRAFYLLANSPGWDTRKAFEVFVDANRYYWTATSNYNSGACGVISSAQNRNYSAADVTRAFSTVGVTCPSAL

[6] = molecular target: T3, collagenase unit of ColQ1 (ColQ1-CU) (Bacillus cereus, UniProt B9J3S4); experiment: biochemical; set-up: species or system B. cereus strain Q1; settings: read-out: ColQ1-CU % inhibition @ 100 μM
T3 construct: the collagenase unit of ColQ1 (ColQ1-CU) from B. cereus strain Q1
T3 sequence (B9J3S4 94-765 limits assumed): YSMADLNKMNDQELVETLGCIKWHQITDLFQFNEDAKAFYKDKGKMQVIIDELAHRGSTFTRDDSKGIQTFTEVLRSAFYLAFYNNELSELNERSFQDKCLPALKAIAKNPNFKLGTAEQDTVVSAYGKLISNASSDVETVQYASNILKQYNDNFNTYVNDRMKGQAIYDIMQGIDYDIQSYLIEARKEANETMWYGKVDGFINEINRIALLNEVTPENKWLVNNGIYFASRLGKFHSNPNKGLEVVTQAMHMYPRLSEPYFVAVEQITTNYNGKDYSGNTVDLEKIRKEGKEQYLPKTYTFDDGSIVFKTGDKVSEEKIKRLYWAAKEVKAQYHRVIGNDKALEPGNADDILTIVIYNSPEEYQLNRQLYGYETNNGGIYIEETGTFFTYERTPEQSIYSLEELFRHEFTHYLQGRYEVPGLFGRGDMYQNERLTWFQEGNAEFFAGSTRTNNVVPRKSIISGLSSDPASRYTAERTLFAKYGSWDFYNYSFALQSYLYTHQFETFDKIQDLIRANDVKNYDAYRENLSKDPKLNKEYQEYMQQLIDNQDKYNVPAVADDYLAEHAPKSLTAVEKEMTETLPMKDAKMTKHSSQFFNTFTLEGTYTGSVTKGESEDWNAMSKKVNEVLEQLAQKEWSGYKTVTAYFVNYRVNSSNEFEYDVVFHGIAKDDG

[7] = molecular target: T4, MMP-1 (Homo sapiens, UniProt P03956); experiment: MMP-1 off-target inhibition; assay type: biochemical; settings: read-out: MMP-1 % inhibition @ 100 μM; 100 μM compound
T4 sequence (P03956 100-469): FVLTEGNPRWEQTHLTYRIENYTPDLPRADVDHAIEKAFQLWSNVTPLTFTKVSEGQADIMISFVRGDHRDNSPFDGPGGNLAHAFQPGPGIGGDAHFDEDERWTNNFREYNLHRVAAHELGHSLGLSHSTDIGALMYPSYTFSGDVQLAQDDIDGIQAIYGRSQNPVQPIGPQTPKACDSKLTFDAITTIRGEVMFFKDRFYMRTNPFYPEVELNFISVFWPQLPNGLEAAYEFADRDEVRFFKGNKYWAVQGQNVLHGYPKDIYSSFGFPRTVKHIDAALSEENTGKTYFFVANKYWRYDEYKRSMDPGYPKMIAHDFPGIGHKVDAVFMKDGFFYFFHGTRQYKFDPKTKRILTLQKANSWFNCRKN
Excerpt: as §1

[8] = test system: C. histolyticum strain DSM 1126; experiment: Bacterial growth inhibition assay (MIC) C. histolyticum; assay type: cell-based, Clostridium histolyticum; settings: strain DSM 1126, BHI medium, 48 h anaerobic
[9] = in vitro; settings: human, HepG2 cells (hepatocellular carcinoma)
[10] = molecular target: collagenase unit of ColG (ColG-CU) (Hathewaya histolytica, UniProt Q9X721); experiment: biochemical; set-up: species or system C. histolyticum; settings: read-out: ColG-CU % inhibition @ 100 μM
Sequence of collagenase unit of ColG (ColG-CU) (Q9X721 111-786): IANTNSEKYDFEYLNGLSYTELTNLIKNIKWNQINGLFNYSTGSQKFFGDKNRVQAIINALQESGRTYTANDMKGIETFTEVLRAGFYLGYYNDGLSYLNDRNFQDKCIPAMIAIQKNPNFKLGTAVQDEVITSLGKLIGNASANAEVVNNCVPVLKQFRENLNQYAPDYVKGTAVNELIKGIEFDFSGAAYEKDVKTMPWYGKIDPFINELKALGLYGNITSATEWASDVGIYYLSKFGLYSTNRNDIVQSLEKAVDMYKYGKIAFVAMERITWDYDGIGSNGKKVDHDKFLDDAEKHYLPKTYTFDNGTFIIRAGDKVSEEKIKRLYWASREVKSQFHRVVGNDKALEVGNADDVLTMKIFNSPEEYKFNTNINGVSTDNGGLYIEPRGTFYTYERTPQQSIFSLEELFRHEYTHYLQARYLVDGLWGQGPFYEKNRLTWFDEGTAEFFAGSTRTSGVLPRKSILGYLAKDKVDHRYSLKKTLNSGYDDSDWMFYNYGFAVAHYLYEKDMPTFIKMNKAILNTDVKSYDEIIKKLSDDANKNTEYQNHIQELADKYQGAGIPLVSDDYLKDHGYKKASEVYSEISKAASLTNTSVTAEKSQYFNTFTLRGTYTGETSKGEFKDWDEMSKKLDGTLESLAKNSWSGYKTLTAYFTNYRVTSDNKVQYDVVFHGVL

Sequence of MMP-3 (P08254 100-477): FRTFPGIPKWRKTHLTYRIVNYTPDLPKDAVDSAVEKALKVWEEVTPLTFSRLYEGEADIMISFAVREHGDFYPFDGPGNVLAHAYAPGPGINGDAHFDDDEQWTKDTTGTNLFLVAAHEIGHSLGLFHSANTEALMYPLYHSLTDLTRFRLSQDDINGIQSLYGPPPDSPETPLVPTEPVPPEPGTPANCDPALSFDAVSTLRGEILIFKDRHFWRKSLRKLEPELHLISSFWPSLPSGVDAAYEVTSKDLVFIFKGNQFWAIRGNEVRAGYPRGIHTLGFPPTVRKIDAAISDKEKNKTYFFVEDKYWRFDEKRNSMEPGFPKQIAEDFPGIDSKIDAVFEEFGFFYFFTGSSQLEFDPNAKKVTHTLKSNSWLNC

## CC(=O)c1ccc(N2C(=O)CC(S)C2=O)cc1 (centres unmarked) [Compound 25, 1-(4-Acetylphenyl)-3-mercaptopyrrolidine-2,5-dione]
[1]
  inhibition at 100 µM: < 10%
[2]
  inhibition at 100 µM: < 10%
[3]
  IC50: > 100 µM
[4]
  IC50: > 100 µM
[5]
  times more active on LasB than its methoxy-analogue: 1.7 times
[6]
  inhibition at 100 µM: 99 ± 2%
[7]
  inhibition at 100 µM: < 10%
[8]; Hathewaya histolytica, DSM1126
  MIC: > 100 µM
[8]
  MIC: >100 µM
[9]
  IC50: > 100 µM
[10]
  inhibition at 100 µM: 100 ± 2%
